Consider 28 compounds from patent US10611750B2, “Tetrahydroquinoline compositions as bet bromodomain inhibitors” (FORMA Therapeutics, Inc., priority 2013, dated 2020).

Like-named read-outs stand apart in the source and are kept apart here. Some results are limits rather than exact numbers.

The target in assay [1] is T1, BRD4 Bromodomain 1 (BRD4 BD1) (Homo sapiens, UniProt O60885).
T1 construct: 44-168 and BRD4 BD2
The experiment in a line: AlphaScreen binding assay, BRD4 BD1. The conditions noted are these: His-tagged BRD4 BD1 50 nM, biotinylated H4 (1-21) K5/8/12/16 tetra-acetylated peptide 50 nM, compounds listed under IC50 range headings. The method, boiled down: (§1)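 An AlphaScreen competition format was used with His-BRD4 BD1 or BD2 and biotin-H4 K5/8/12/16-acetyl peptide, each at matched final levels of 50 nM (BD1) or 100 nM (BD2). Incubation in HEPES/NaCl buffer with 0.1% BSA and 0.01% Triton X-100 ran ≥1 h before IC50 determination.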

In assay [2] the target is T2, BRD4 Bromodomain 2 (BRD4 BD2) (Homo sapiens, UniProt O60885).
T2 construct: 333-460 were cloned, expressed, and purified to homogeneity
The assay is described as follows: AlphaScreen binding assay, BRD4 BD2. The settings on record: His-tagged BRD4 BD2 100 nM, biotinylated H4 (1-21) K5/8/12/16 tetra-acetylated peptide 100 nM, compounds listed under IC50 range headings. In a few lines:
as §1
(In general: Alpha assays give light when donor and acceptor beads are brought close together.)

For assay [3], the system named is acute myelocytic leukemia (AML) cell line MV4-11. The experiment in a line: Oncology cell growth assay (3-day proliferation, CellTiter-Glo). In kind it is cell-based. The conditions noted are these: Homo sapiens, MV4-11 cells, 3000 cells/well, compounds listed under IC50 range headings, read-out: MV411 IC50 (gIC50, inhibition of proliferation). The method, boiled down: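 MV4-11 AML cells (RPMI 1640, 10% FBS) plated at 3000 cells/well and exposed 72 h to compound at final 10 to 0.0045 μM (3-fold series). Viability read by CellTiter-Glo luminescence; gIC50 from four-parameter logistic fit between DMSO control and no-cell background.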
Background: ATP-based viability assays read luminescence as a measure of living cells.

As to `COC(=O)N1c2ccc(-c3cnn(CC(C)(C)O)c3)c(OCC3CCOCC3)c2CC[C@@H]1C` [I-449], the IC50 in assay [1] is 0.1 to 1 µM; in assay [2], 0.05 to 0.5 µM; in assay [3] (MV4-11, 72 h) it was less than 0.5 µM.
Regarding `COC(=O)N1c2ccc(-c3cnn(C4CCNCC4)c3)c(Oc3ccc(F)cc3F)c2CC[C@@H]1C` [I-263, (S)-methyl 5-(2,4-difluorophenoxy)-2-methyl-6-(1-(piperidin-4-yl)-1H-pyrazol-4-yl)-3,4-dihydroquinoline-1(2H)-carboxylate], the IC50 in assay [1] was 0.1 to 1 µM; in assay [2], less than 0.05 µM; in assay [3] (MV4-11, 72 h), less than 0.5 µM.
As to `COC(=O)N1c2ccc(-c3cnn(CCO)c3)c(Oc3ncc(C(F)(F)F)cn3)c2CC[C@@H]1C` [I-580], the IC50 is 1 to 10 µM in assay [1]; 0.05 to 0.5 µM in assay [2]; 0.5 to 1 µM in assay [3] (MV4-11, 72 h).
On the same counts, the results for `CC(=O)N1c2ccc(-c3cnn(CCS(C)(=O)=O)c3)c(OCC3CCCC3)c2CC[C@@H]1C` [I-424] are 0.1 to 1 µM, less than 0.05 µM and less than 0.5 µM.
As for `CCCOc1c(-c2cnn(C3CCNCC3)c2)ccc2c1CC[C@H](C)N2C(=O)OC` [I-107, (S)-methyl 2-methyl-6-(1-(piperidin-4-yl)-1H-pyrazol-4-yl)-5-propoxy-3,4-dihydroquinoline-1(2H)-carboxylate], the IC50 in assay [1] was 0.1 to 1 µM; in assay [2] it was 0.05 to 0.5 µM; in assay [3] (72 hours), less than 0.5 µM.
As to `CC(=O)N1c2ccc(-c3cnn(C4CCNCC4)c3)c(Oc3ccccc3Cl)c2CC[C@@H]1C` [I-157, (S)-1-(5-(2-chlorophenoxy)-2-methyl-6-(1-(piperidin-4-yl)-1H-pyrazol-4-yl)-3,4-dihydroquinolin-1(2H)-yl)ethanone], the IC50 was 0.1 to 1 µM in assay [1]; less than 0.05 µM in assay [2]; less than 0.5 µM in assay [3] (MV4-11, 72 h).
For `CCCOc1c(-c2cn3ccccc3n2)ccc2c1CC[C@H](C)N2C(C)=O` [I-119, (S)-1-(6-(imidazo[1,2-a]pyridin-2-yl)-2-methyl-5-propoxy-3,4-dihydroquinolin-1(2H)-yl)ethanone], the IC50 in assay [1] was 1 to 10 µM; in assay [2], 0.05 to 0.5 µM; in assay [3] (MV4-11, 72 h), 0.5 to 1 µM.
For the compound `CC(=O)N1c2ccc(-c3cnn(C4CCNCC4)c3)c(Oc3ccc(Cl)cc3)c2CC[C@@H]1C` [I-191, (S)-1-(5-(4-chlorophenoxy)-2-methyl-6-(1-(piperidin-4-yl)-1H-pyrazol-4-yl)-3,4-dihydroquinolin-1(2H)-yl)ethanone], the IC50 in assay [1] was 0.1 to 1 µM; in assay [2] it was less than 0.05 µM; in assay [3] (MV4-11, 72 h), less than 0.5 µM.
Turning to `COC(=O)N1c2ccc(-c3cnn(C4CN(C)C4)c3)c(Oc3ccc(F)cc3)c2CC[C@@H]1C` [I-282, Methyl (S)-5-(4-fluorophenoxy)-2-methyl-6-(1-(1-methylazetidin-3-yl)-1H-pyrazol-4-yl)-3,4-dihydroquinoline-1(2H)-carboxylate], the IC50 in assay [1] was 0.1 to 1 µM; in assay [2] it was less than 0.05 µM; in assay [3] (MV4-11, 72 h), less than 0.5 µM.
On to `COC(=O)N1c2ccc(-c3cnn(C4CC4)c3)c(Oc3ccc(Cl)cc3)c2CC[C@@H]1C` [I-214, (S)-methyl 5-(4-chlorophenoxy)-6-(1-cyclopropyl-1H-pyrazol-4-yl)-2-methyl-3,4-dihydroquinoline-1(2H)-carboxylate], for which the IC50 is 1 to 10 µM in assay [1]; less than 0.05 µM in assay [2]; less than 0.5 µM in assay [3] (MV4-11, 72 h).
Consider `CCCOc1c(-c2cnn(C3CNC3)c2)ccc2c1CC[C@H](C)N2C(=O)C1CC1` [I-102, (S)-(6-(1-(azetidin-3-yl)-1H-pyrazol-4-yl)-2-methyl-5-propoxy-3,4-dihydroquinolin-1(2H)-yl)(cyclopropyl)methanone], for which the IC50 in assay [1] was 0.1 to 1 µM; in assay [2], less than 0.05 µM; in assay [3] (MV4-11, 72 h), less than 0.5 µM.
On to `COC(=O)N1c2ccc(-c3cnn(CCS(C)(=O)=O)c3)c(Oc3ncc(C4CC4)cn3)c2CC[C@@H]1C` [I-570], for which the IC50 in assay [1] is 1 to 10 µM; in assay [2] it was 0.05 to 0.5 µM; in assay [3] (MV4-11, 72 h) it was greater than 1 µM.
Regarding `CC(=O)N1c2ccc(-c3cnn(C4CC4)c3)c(Oc3nccs3)c2CC[C@@H]1C` [I-83, (S)-1-(6-(1-cyclopropyl-1H-pyrazol-4-yl)-2-methyl-5-(thiazol-2-yloxy)-3,4-dihydroquinolin-1(2H)-yl)ethanone], the IC50 in assay [1] is 1 to 10 µM; in assay [2], less than 0.05 µM; in assay [3] (MV4-11, 72 h), less than 0.5 µM.
For the compound `CC(=O)N1c2ccc(-c3cnn(C4CC4)c3)c(OC(F)C(N)=O)c2CC[C@@H]1C` (single isomer, unassigned) [I-64], the IC50 in assay [1] is no less than 10 µM; in assay [2], no less than 0.5 µM; in assay [3] (72 hours), greater than 1 µM.
Consider `CC(=O)N1c2ccc(-c3cnn(C4CC4)c3)c(Oc3ccccc3C#N)c2CC[C@@H]1C` [I-153, (S)-2-(1-acetyl-6-(1-cyclopropyl-1H-pyrazol-4-yl)-2-methyl-1,2,3,4-tetrahydroquinolin-5-yloxy)benzonitrile], for which the IC50 in assay [1] was 0.1 to 1 µM; in assay [2], less than 0.05 µM; in assay [3] (MV4-11, 72 h) it was less than 0.5 µM.
On to `CC(=O)N1c2ccc(-c3cnn(C4CC4)c3)c(OCC3CCCC3)c2CC[C@@H]1C` [I-385], for which the IC50 in assay [1] is less than 0.1 µM; in assay [2], less than 0.05 µM; in assay [3] (MV4-11, 72 h) it was less than 0.5 µM.
Consider `CC(=O)N1c2ccc(-c3cnn(C4CC4)c3)c(Oc3cccc(C)n3)c2CC[C@@H]1C` [I-256, (S)-1-(6-(1-cyclopropyl-1H-pyrazol-4-yl)-2-methyl-5-(6-methylpyridin-2-yloxy)-3,4-dihydroquinolin-1 (2H)-yl)ethanone], for which the IC50 in assay [1] is 0.1 to 1 µM; in assay [2] it was less than 0.05 µM; in assay [3] (MV4-11, 72 h), less than 0.5 µM.
As for `CC(=O)N1c2ccc(-c3cnn(C4CCNCC4)c3)c(Oc3ncccc3C(F)(F)F)c2CC[C@@H]1C` [I-141, (S)-1-(2-methyl-6-(1-(piperidin-4-yl)-1H-pyrazol-4-yl)-5-(3-(trifluoromethyl)pyridin-2-yloxy)-3,4-dihydroquinolin-1(2H)-yl)ethanone], the IC50 was 0.1 to 1 µM in assay [1]; less than 0.05 µM in assay [2]; less than 0.5 µM in assay [3] (MV4-11, 72 h).
The corresponding values for `COC(=O)N1c2ccc(-c3cnn(CCO)c3)c(OCC3CCCC3)c2CC[C@@H]1C` [I-461] are 0.1 to 1 µM, less than 0.05 µM and 0.5 to 1 µM.
The corresponding values for `CC(=O)N1c2ccc(-c3cnn(CCO)c3)c(OCC(C)C)c2CC[C@@H]1C` [I-422] are 0.1 to 1 µM, less than 0.05 µM and less than 0.5 µM.
As for `COC(=O)N1c2ccc(-c3cnn(CCS(C)(=O)=O)c3)c(Oc3ncccc3C#N)c2CC[C@@H]1C` [I-566], the IC50 in assay [1] was 1 to 10 µM; in assay [2], 0.05 to 0.5 µM; in assay [3] (MV4-11, 72 h), greater than 1 µM.
The corresponding values for `COC(=O)N1c2ccc(-c3cnn([C@H]4CCNC[C@H]4F)c3)c(Oc3ccc(F)cc3)c2CC[C@@H]1C` [I-366, methyl (2 S)-5-(4-fluorophenoxy)-6-{1-[(3R,4S)-3-fluoropiperidin-4-yl]-1H-pyrazol-4-yl}-2-methyl-1,2,3,4-tetrahydroquinoline-1-carboxylate] are 0.1 to 1 µM, less than 0.05 µM and less than 0.5 µM.
On to `C[C@H]1CCc2c(ccc(-c3cnn(C4CCNCC4)c3)c2Oc2ccc(C(F)(F)F)cn2)N1C(=O)C1CC1` [I-541], for which the IC50 in assay [1] is 1 to 10 µM; in assay [2], 0.05 to 0.5 µM; in assay [3] (MV4-11, 72 h), less than 0.5 µM.
With `C[C@H]1CCc2c(ccc(-c3cnn(C)c3)c2Oc2ccccc2)N1C(=O)C1CC1` [I-224, (S)-cyclopropyl(2-methyl-6-(1-methyl-1H-pyrazol-4-yl)-5-phenoxy-3,4-dihydroquinolin-1(2H)-yl)methanone], the IC50 in assay [1] is 0.1 to 1 µM; in assay [2] it was less than 0.05 µM; in assay [3] (MV4-11, 72 h) it was less than 0.5 µM.
For `CC(=O)N1c2ccc(-c3cnn(C4CC4)c3)c(Oc3ccc(Cl)cc3)c2CC[C@@H]1C` [I-226, (S)-1-(5-(4-chlorophenoxy)-6-(1-cyclopropyl-1H-pyrazol-4-yl)-2-methyl-3,4-dihydroquinolin-1(2H)-yl)ethanone], the IC50 in assay [1] was 0.1 to 1 µM; in assay [2] it was 0.05 to 0.5 µM; in assay [3] (MV4-11, 72 h), less than 0.5 µM.
On to `CCCOc1c(-c2cc3ccccc3o2)ccc2c1CC[C@H](C)N2C(C)=O` [I-504], for which the IC50 was 1 to 10 µM in assay [1]; no less than 0.5 µM in assay [2]; greater than 1 µM in assay [3] (MV4-11, 72 h).
In the case of `CCN1CC(Oc2c(-c3cnn(C4CC4)c3)ccc3c2CC[C@H](C)N3C(=O)OC)C1` [I-251, (S)-methyl 6-(1-cyclopropyl-1H-pyrazol-4-yl)-5-(1-ethylazetidin-3-yloxy)-2-methyl-3,4-dihydroquinoline-1(2H)-carboxylate], the IC50 was 1 to 10 µM in assay [1]; 0.05 to 0.5 µM in assay [2]; greater than 1 µM in assay [3] (MV4-11, 72 h).
On to `COC(=O)N1c2ccc(-c3cnn(C4CC4)c3)c(OCS(=O)(=O)N(C)C)c2CC[C@@H]1C` [I-29, (S)-methyl 6-(1-cyclopropyl-1H-pyrazol-4-yl)-5-((N,N-dimethylsulfamoyl)methoxy)-2-methyl-3,4-dihydroquinoline-1(2H)-carboxylate], for which the IC50 in assay [1] is 1 to 10 µM; in assay [2], 0.05 to 0.5 µM; in assay [3] (MV4-11, 72 h), greater than 1 µM.
